Key:
[1] = Pharmacokinetics and tissue distribution in mice; assay type: in vivo
[2] = tested on: BIM in parental MOLM-14 cells; experiment: Western blot of apoptotic proteins; details: 75 nmol/L TUS, 48-hour exposure
CYP2C9 = CYP2C9 (Homo sapiens, UniProt P11712); experiment: CYP inhibition; assay type: in vitro ADME
[3] = Tolerability in orthotopic AML models; assay type: in vivo; details: daily dosing at 30 mg/kg, all three orthotopic models
From the text: ; Fig. 3A). The increase in the MOLM-13 model was from 37 to 75 days (P < 0.0001; Fig. 3B) and in the MOLM-14 model, it was from 17 to 65 days (Fig. 3C).

[4] = Repeat daily dose toxicity and safety pharmacology in rats; assay type: in vivo
From the text: (§1) In both species, all adverse events were reversible. There were no alterations in clinical chemistry parameters. Neuropharmacology and respiratory function assessment in rats disclosed no concerns.

TUS/R line 3 (MOLM-14) = experiment: Growth inhibition of TUS-resistant subline; assay type: cell-based, human; details: Homo sapiens
[5] = Repeat daily dose toxicity in dogs; assay type: in vivo
From the text: as §1

Pharmacokinetics in dog = assay type: in vivo
[6] = tested on: p-JAK1, p-JAK2, p-STAT3, p-STAT5 in MOLM-14 cells cocultured with HS-5 cells; experiment: HS-5 stromal coculture Western blot; assay type: cell-based, human; details: concentrations <1 μmol/L; MOLM-14 cocultured with HS-5
Procedure: Cells were treated as described in respective Results sections and then lysed with RIPA buffer. Western blot analyses were performed with antibodies capable of detecting both total and phosphorylated forms of each kinase purchased from commercial sources. Information on the antibodies used is provided in the Supplementary Materials section.
HS-5 cells were obtained from ATCC. The HS-5 stromal cells (5 × 10^5 cells/well) were seeded into six-well plates, and 24 hours later, MOLM-14 cells (1 × 10^6 cells/well) were seeded into the same plate and then cultured for 48 hours. Cultures were then exposed to test drugs for 2 hours, harvested, and lysates were prepared for Western blotting. For stimulation studies, MOLM-14 or KG-1a cells were seeded at 5.0 to 6.0 × 10^6 cells/well into six-well plates in 2 mL medium. Cells were stimulated with 500 μg/mL fibrinogen (Sigma-Aldrich, Catalog # F3879) for 1 hour at 37°C. Alternatively, they were treated with 10 μg/mL IgG (Invitrogen, Catalog # 31154) for 10 minutes on ice followed by IgG cross-linking with 1 μg/mL anti–human IgG antibody for 10 minutes on ice. After these incubations, the media were removed and the cells were washed with cold PBS, lysed, and analyzed by Western blotting.

[7] = tested on: MV-4-11 cells inoculated orthotopically; experiment: Orthotopic AML xenograft survival; assay type: in vivo, NOD/SCID mice; details: oral TUS 30 mg/kg every day; vehicle 42 days
Procedure: (§2) For subcutaneous inoculation, MV-4-11 and MOLM-14 FLT3-ITD/F691L cells were mixed with BD Matrigel Matrix (1:0.5 ratio), and 2 to 5 × 10^6 cells in 0.15 mL were inoculated subcutaneously in NOD/SCID mice. Tumor size was assessed using a Vernier caliper 2 to 3 times weekly and volume was calculated using the formula for an ellipsoid sphere. For orthotopic inoculation, MOLM-14-Luc/GFP cells (2 × 10^6 cells in 0.03 mL PBS) or MV-4-11-Luc and MOLM-13-Luc cells (1 × 10^6 cells in 50 μL Hank’s balanced salt solution) were injected into the left tibia of NOD/SCID mice. Tumor growth was monitored weekly by bioluminescence imaging using an IVIS Lumina Series III In vivo imaging system (PerkinElmer Inc.). The Institutional Animal Care and Use Committee of the Hanmi Research Center approved the animal study protocol.
(§3) For both subcutaneous and bone marrow orthotopic models, after confirming tumor formation by palpation or bioluminescence imaging, mice were randomly assigned into experimental groups.
(§4) A P value less than 0.05 was considered statistically significant.

[8] = tested on: MOLM-14 cells inoculated orthotopically; experiment: Orthotopic AML xenograft survival; assay type: in vivo, NOD/SCID mice; details: oral TUS 30 mg/kg every day; vehicle 17 days
Procedure: as §2, §3, §4

[9] = tested on: MOLM-13 cells inoculated orthotopically; experiment: Orthotopic AML xenograft survival; assay type: in vivo, NOD/SCID mice; details: oral TUS 30 mg/kg every day; vehicle 37 days
Procedure: as §2, §3, §4

[10] = tested on: MV-4-11 NRAS G12D Clone 15; experiment: Growth inhibition of NRAS G12D clone; assay type: cell-based, human
Procedure: (§5) MV-4-11 cells expressing NRAS^G12D were prepared by transduction with a lentiviral vector encoding the NRAS^G12D mutation. Assays using a panel of parental Ba/F3 into which an additional copy of either WT or a mutant form of FLT3 was introduced were performed at Kyinno Biotechnology Co., Ltd. All cell lines were short tandem repeat authenticated at ATCC or at DSMZ when originally obtained, and no further authentication was done after receipt of the cells in the laboratory.
(§6) Assays using Ba/F3 cells expressing WT and mutant forms of FLT3 were performed by Kyinno Biotechnology. The cells were cultured in the medium recommended by the source for each cell line. Growth inhibition assays were performed using either Cell Titer 96 Aqueous One Solution Cell Proliferation assay (Promega, # G3581) or CCK8 (Dojindo, # CK-04). […] IC50 values were determined from growth inhibition curves fitted using GraphPad Prism and a nonlinear regression model with sigmoidal dose response. Unless otherwise indicated, data are presented as mean ± SEM.

[11] = tested on: MV-4-11 NRAS G12D Clone 4; experiment: Growth inhibition of NRAS G12D clone; assay type: cell-based, human; details: Homo sapiens, MV4-11; MV-4-11 NRAS G12D, high expression; mean ± SEM; read-out: GI50 (nM) Clone 4
Procedure: as §5, §6

[12] = tested on: MV-4-11 NRAS G12D Clone 1; experiment: Growth inhibition of NRAS G12D clone; assay type: cell-based, human
Procedure: as §5, §6

[13] = mouse, plasma, mice, oral doses of 1, 3, 10, and 30 mg/kg
[14] = 13 to […]-fold increase in NRAS G12D expression
[15] = Homo sapiens, MV4-11, MV-4-11 NRAS G12D, mean ± SEM

Sequence of CYP2C9 (P11712 whole entry): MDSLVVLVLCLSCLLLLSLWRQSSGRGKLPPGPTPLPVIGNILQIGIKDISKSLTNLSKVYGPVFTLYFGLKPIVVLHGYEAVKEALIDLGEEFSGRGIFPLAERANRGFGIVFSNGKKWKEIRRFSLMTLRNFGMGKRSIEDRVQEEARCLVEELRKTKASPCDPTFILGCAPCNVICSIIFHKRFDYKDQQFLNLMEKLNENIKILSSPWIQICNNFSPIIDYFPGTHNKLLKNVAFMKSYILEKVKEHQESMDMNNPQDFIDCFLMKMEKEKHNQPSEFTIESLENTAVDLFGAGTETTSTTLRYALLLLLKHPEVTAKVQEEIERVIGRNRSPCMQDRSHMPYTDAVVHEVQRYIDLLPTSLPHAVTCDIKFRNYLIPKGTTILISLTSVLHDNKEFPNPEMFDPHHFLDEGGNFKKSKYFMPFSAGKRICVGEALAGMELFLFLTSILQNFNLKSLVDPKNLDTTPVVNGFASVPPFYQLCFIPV

Cc1ccc2c(-c3nc(Nc4cc(CN5C[C@@H](C)N[C@@H](C)C5)cc(C5CC5)c4)ncc3Cl)c[nH]c2c1 [TUS, Tuspetinib]
dose proportionality of systemic exposure ([1]; mice, oral 1 to 30 mg/kg): greater than dose proportional | clearance ([1]; mouse, plasma, male mice, single intravenous dose of 3 mg/kg): 5 mL/min/kg | Vd ([1]; mouse, plasma, male mice, single intravenous dose of 3 mg/kg, read-out: Vss): 2.4 L/kg | half-life ([1]; mouse, plasma, male mice, single intravenous dose of 3 mg/kg, read-out: terminal plasma half-life (converted)): 5.5 h | Tmax [1, 13]: 1 to 4 h | bioavailability [1, 13]: 21.4 to 47.2% | increase of BIM [2]: 10 fold | Ki (CYP2C9): < 1000 nM | tolerability / weight loss [3]: well tolerated in mice with no significant weight loss | Neuropharmacology and respiratory function assessment [4]: no concerns | main target organ of toxicity ([4]; repeat daily dose up to 4 weeks): lymphoid organs | GI50 (TUS/R line 3 (MOLM-14); MOLM-14, read-out: GI50 (nM) TUS/R line 3, mean ± SEM (Supplementary Table 6)): 108 ± 24 nM | IC50 (TUS/R line 3 (MOLM-14); MOLM-14, read-out: IC50 (nmol/L), Mean ± SEM, TUS/R line 3): 108 ± 24 nmol/L | main toxicity findings ([5]; dogs, repeat daily dose up to 4 weeks): leucocyte depletion, decreased thymus and spleen weights, and tremors | cardiovascular effects ([5]; single dose and 4-week dog toxicology studies): No treatment-related cardiovascular effects | dose proportionality of AUC (Pharmacokinetics in dog): linearly proportional to dose | bioavailability (Pharmacokinetics in dog; in vivo, oral): 99% | inhibition of p-JAK1, p-JAK2, p-STAT3, or p-STAT5 [6]: Neither TUS nor gilteritinib inhibited | median survival [7]: 147 days | median survival [8]: 65 days | median survival [9]: 75 days | change in sensitivity, clone 15 [10, 14]: did not alter sensitivity | GI50 [10, 15]: 7.7 ± 3.1 nM | GI50 [11]: 69.9 ± 7.4 nM | change in sensitivity, clone 1 [12, 14]: did not alter sensitivity | GI50 [12, 15]: 8.7 ± 3 nM

Reference: paper PMC11725774 (Cancer Research Communications, 2025)
